Activity calls are given as the source filed them. The rule behind the calls is not given here.
Tests used:
NCI-H460 = assay: Antiproliferative activity against human NCI-H460 cells assessed as inhibition of cell growth incubated for 72 hrs by MTT assay; assay type: functional, cell-based; conditions: NCI-H460, 72 h
[1] = Selectivity index, ratio of IC50 for human HEK293 cells to IC50 for human HCT116 cells; assay type: toxicity; conditions: HEK293 cells versus HCT116 cells, read-out: Ratio IC50
MCF7 = assay: Antiproliferative activity against human MCF7 cells assessed as inhibition of cell growth incubated for 72 hrs by MTT assay; assay type: functional, cell-based; conditions: MCF7, 72 h
HCT-116 = assay: Antiproliferative activity against human HCT-116 cells assessed as inhibition of cell growth incubated for 72 hrs by MTT assay; assay type: functional, cell-based; conditions: HCT-116, 72 h
HEK293 = assay: Cytotoxicity against human HEK293 cells assessed as inhibition of cell growth incubated for 72 hrs by MTT assay; assay type: cell-based; conditions: HEK293, 72 h
[2] = test system: Poly(dA-dU)oligonucleotide; assay: Binding affinity to polyA-polyU RNA (unknown origin) assessed as ratio of bound compound to polynucleotide phosphate in sodium cacodylate buffer at pH 7 by fluorescence spectroscopy based Scatchard method; assay type: nucleic-acid assay
[3] = test system: Poly(dA-dU)oligonucleotide; assay: Binding affinity to polyA-polyU RNA (unknown origin) assessed as change in melting temperature in sodium cacodylate buffer at pH 7 at compound:polynucleotide concentration ratio of 0.3 by UV/vis spectrophotometric analysis; assay type: nucleic-acid assay
[4] = test system: Poly(dA-dT)oligonucleotide; assay: Binding affinity to poly(dAdT)2 DNA (unknown origin) assessed as change in melting temperature in sodium cacodylate buffer at pH 7 at compound:polynucleotide concentration ratio of 0.3 by UV/Vis spectrophotometric analysis; assay type: nucleic-acid assay
Quadruplex DNA [5] = assay: Binding affinity to human Tel22 G quadruplex DNA assessed as binding constant in sodium cacodylate buffer at pH 7 at binding stoichiometry ratio of 1:1 by fluorescence spectroscopy; assay type: nucleic-acid assay
[6] = test system: Poly(dA-dT)oligonucleotide; assay: Binding affinity to poly(dAdT)2 DNA (unknown origin) assessed as binding constant in sodium cacodylate buffer at pH 7 by fluorescence spectroscopy; assay type: nucleic-acid assay
Quadruplex DNA [7] = assay: Binding affinity to human Tel22 G quadruplex DNA assessed as ratio of fluorescence intensity of compound-polynucleotide complex to fluorescence intensity of compound in sodium cacodylate buffer at pH 7 at binding stoichiometry ratio of 1:1 by fluorescence spectroscopy; assay type: nucleic-acid assay
[8] = test system: Poly(dA-dU)oligonucleotide; assay: Binding affinity to polyA-polyU RNA (unknown origin) assessed as binding constant in sodium cacodylate buffer at pH 7 by fluorescence spectroscopy; assay type: nucleic-acid assay
Calf thymus DNA [9] = assay: Binding affinity to calf thymus DNA assessed as change in melting temperature in sodium cacodylate buffer at pH 7 at compound:polynucleotide concentration ratio of 0.3 by UV/Vis spectrophotometric analysis; assay type: nucleic-acid assay; conditions: Bos taurus
[10] = test system: Poly(dA-dU)oligonucleotide; assay: Binding affinity to polyA-polyU RNA (unknown origin) assessed as ratio of fluorescence intensity of compound-polynucleotide complex to fluorescence intensity of compound in sodium cacodylate buffer at pH 7 by fluorescence spectroscopy based Scatchard method; assay type: nucleic-acid assay
[11] = test system: Poly(dA-dT)oligonucleotide; assay: Binding affinity to poly(dAdT)2 DNA (unknown origin) in sodium cacodylate buffer at pH 7 by CD spectroscopy; assay type: nucleic-acid assay
Quadruplex DNA [12] = assay: Binding affinity to human Tel22 G quadruplex DNA assessed as change in melting temperature in sodium cacodylate buffer at pH 7 by UV/Vis spectrophotometric analysis; assay type: nucleic-acid assay
Calf thymus DNA [13] = assay: Binding affinity to calf thymus DNA in sodium cacodylate buffer at pH 7 by CD spectroscopy; conditions: Bos taurus
[14] = test system: Poly(dA-dT)oligonucleotide; assay: Binding affinity to poly(dAdT)2 DNA (unknown origin) assessed as ratio of fluorescence intensity of compound-polynucleotide complex to fluorescence intensity of compound in sodium cacodylate buffer at pH 7 by fluorescence spectroscopy based Scatchard method; assay type: nucleic-acid assay
[15] = test system: Poly(dG-dC)oligonucleotide; assay: Binding affinity to poly(dGdC)2 DNA (unknown origin) in sodium cacodylate buffer at pH 7 by CD spectroscopy; assay type: nucleic-acid assay
[16] = test system: Poly(dA-dT)oligonucleotide; assay: Binding affinity to poly(dAdT)2 DNA (unknown origin) assessed as ratio of bound compound to polynucleotide phosphate in sodium cacodylate buffer at pH 7 by fluorescence spectroscopy based Scatchard method; assay type: nucleic-acid assay

| SMILES | IC50 (NCI-H460) [µM] | selectivity ratio [1] | IC50 (MCF7) [µM] | IC50 (HCT-116) [µM] | IC50 (HEK293) [µM] | Ratio [2] | ΔTm [3] [°C] | ΔTm [4] [°C] | log Ks (Quadruplex DNA [5]) | log Ks [6] | Ratio (Quadruplex DNA [7]) | log Ks [8] | ΔTm (Calf thymus DNA [9]) [°C] | Ratio [10] | Activity [11] | ΔTm (Quadruplex DNA [12]) [°C] | Activity (Calf thymus DNA [13]) | Ratio [14] | Activity [15] | Ratio [16] |
| --- | --- | --- | --- | --- | --- | --- | --- | --- | --- | --- | --- | --- | --- | --- | --- | --- | --- | --- | --- | --- |
| N#Cc1c(Cl)c2ccccc2n2c1nc1ncccc12 | 4.6 | 16 | 2 | 0.1 | 1.6 |  |  |  |  |  |  |  |  |  |  |  |  |  |  |  |
| CC(C)CNc1c(C#N)c2nc3cccnc3n2c2ccccc12 | ≥ 100 |  | ≥ 100 | ≥ 100 | > 100 | < 0.1 | 0 | 0.8 | 4.51 | 4.6 | 5.52 | 5.3 | 0.8 | 2.5 | Active | 1.8 | Active | 10.4 | inactive | 0.1 |

From ChEMBL document CHEMBL4814006, “Novel amino substituted tetracyclic imidazo[4,5-b]pyridine derivatives: Design, synthesis, antiproliferative activity and DNA/RNA binding study” (Eur J Med Chem, 2021)
